System: human (tumor) Hif2α (EPAS1) mRNA
Experiment: Hif2α knockdown in orthotopic RCC tumor bearing mice, single injection of RNAi trigger-delivery polymer conjugate, RT-qPCR (Table 7)
Assay type: in vivo
Conditions: single tail vein injection, relative to isotonic glucose
Summary of the method: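 A single intravenous dose of Hif2α RNAi trigger–delivery polymer conjugate, or isotonic glucose vehicle, was given to nude mice with subcapsular A498-SEAP renal tumours (about 5–6 weeks old). At the indicated time, tumour RNA was assayed by biplex TaqMan qPCR against CycA, and relative expression was calculated by ΔΔCT versus vehicle.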

[1] = RNAi trigger 80 μg, polymer 126 400 μg
[2] = RNAi trigger 50 μg, polymer 064 125 μg
[3] = RNAi trigger 75 μg, polymer 064 187.5 μg

| Substance | Relative Expression day 4 (Hif2α mRNA in kidney tumor) [1] | Relative Expression day 4 (Hif2α mRNA in kidney tumor) [2] | other results |
| --- | --- | --- | --- |
| AD01258 (antisense TUUCAUGAAAUCGUUACGUTT; sense ACGUAACGAUUUCAUGAAAT; Hif2alpha RNAi agent antisense strand; modified_base 2,4,6,8,10,12,14,16,18 /mod_base = “2′-deoxy-2′-fluoro corresponding nucleoside”; modified_base 3,5,7,9,11,13,17,19 /mod_base = “2′-O-methyl corresponding nucleoside”; modified_base 15 /mod_base = “2′-3′ seco corresponding nucleotide”; modified_base 21 /mod_base = “5′-phosphorothioate corresponding nucleotide”; Hif2alpha RNAi agent sense strand; modified_base 1,3,5,7,9,11,13,15,17,19 /mod_base = “2′-deoxy-2′-fluoro corresponding nucleoside”; modified_base 2,4,6,8,10,12,14,16,18 /mod_base = “2′-O-methyl corresponding nucleoside”; modified_b) | 0.38 |  |  |
| AD01294 (antisense TUUCAUGAAAUCGUUACGUCGGCUGU; sense UAUAUCGACGUAACGAUUUCAUGAAA; Hif2alpha RNAi agent antisense strand; modified_base 25 modified base = “2′-hydroxy corresponding nucleoside”; modified_base 2,4,6,8,10,14,16,18,20 /mod_base = “2′-deoxy-2′-fluoro corresponding nucleoside”; modified_base 3,5,7,9,11,12,13,15,17,19,21,22,23,24,26 /mod_base = “2′-O-methyl corresponding nucleoside”; modified_base 2,3,23,24 /mod_base = “5′-phosphorothioate corresponding nucleotide”; Hif2alpha RNAi agent sense strand; modified_base 2,4 modified base = “2′-hydroxy corresponding nucleoside”; modified_base 6,8,10,12,14,15,16,18,20,22,24,26 /mod_base = “2′-deoxy-2′-fluoro correspondin) | 0.17 |  |  |
| AD03191 (antisense AGUAAAACAAUUGUGUACUUUAA; sense AAAGUACACAAUUGUUUUACT; Hif2alpha RNAi agent antisense strand; modified_base 2,4,6,8,10,14,16,18 /mod_base = “2′-deoxy-2′-fluoro corresponding nucleoside”; modified_base 1,3,5,7,9,11,12,13,15,17,19,20,21,22,23 /mod_base = “2′-O-methyl corresponding nucleoside”; modified_base 2,3,22,23 /mod_base = “5′-phosphorothioate corresponding nucleotide”; Hif2alpha RNAi agent sense strand; modified_base 7,9,10,11 /mod_base = “2′-deoxy-2′-fluoro corresponding nucleoside”; modified_base 1,2,3,4,5,6,8,12,13,14,15,16,17,18,19,20 /mod_base = “2′-O-methyl corresponding nucleoside”; modified_base 21 /mod_base = “3′-3′-linked nucleoti) |  | 0.307 |  |
| AD01030 (antisense TUUCAUGAAAUCGUUACGUTT; sense ACGUAACGAUUUCAUGAAAT; Hif2alpha RNAi agent antisense strand; modified_base 2,4,6,8,10,12,14,16,18 /mod_base = “2′-deoxy-2′-fluoro corresponding nucleoside”; modified_base 3,5,9,11,13,15,17,19 /mod_base = “2′-O-methyl corresponding nucleoside”; modified_base 7 /mod_base = “2′-3′ seco corresponding nucleotide”; modified_base 21 /mod_base = “5′-phosphorothioate corresponding nucleotide”; Hif2alpha RNAi agent sense strand; modified_base 1,3,5,7,9,11,13,15,17,19 /mod_base = “2′-deoxy-2′-fluoro corresponding nucleoside”; modified_base 2,4,6,8,10,12,14,16,18 /mod_base = “2′-O-methyl corresponding nucleoside”; modified_b) | 0.47 |  |  |
| AD02858 (antisense UUUCAUGAAAUCGUUACGUUG; sense ACGUAACGAUUUCAUGAAAT; Hif2alpha RNAi agent antisense strand; modified_base 2,3,4,8,10,14 /mod_base = “2′-deoxy-2′-fluoro corresponding nucleoside”; modified_base 1,5,6,7,9,11,12,13,15,16,17,18,19,20,21 /mod_base = “2′-O-methyl corresponding nucleoside”; modified_base 2,3,20,21 /mod_base = “5′-phosphorothioate corresponding nucleotide”; Hif2alpha RNAi agent sense strand; modified_base 7,8,9 /mod_base = “2′-deoxy-2′-fluoro corresponding nucleoside”; modified_base 1,2,3,4,5,6,10,11,12,13,14,15,16,17,18,19 /mod_base = “2′-O-methyl corresponding nucleoside”; modified_base 20 /mod_base = “3′-3′-linked nucleotide”; modi) |  | 0.192 |  |
| AD01524 (antisense TUUCAUGAAAUCGUUACGUTT; sense ACGUAACGAUUUCAUGAAAT; Hif2alpha RNAi agent antisense strand; modified_base 2,4,6,8,10,12,14,16,18 /mod_base = “2′-deoxy-2′-fluoro corresponding nucleoside”; modified_base 3,5,7,9,11,13,15,17,19 /mod_base = “2′-O-methyl corresponding nucleoside”; modified_base 2,3,21 /mod_base = “5′-phosphorothioate corresponding nucleotide”; Hif2alpha RNAi agent sense strand; modified_base 1,3,5,7,9,11,13,15,17,19 /mod_base = “2′-deoxy-2′-fluoro corresponding nucleoside”; modified_base 2,4,6,8,10,12,14,16,18 /mod_base = “2′-O-methyl corresponding nucleoside”; modified_base 20 /mod_base = “3′-3′-linked nucleotide”; modified_base 1) |  |  | Relative Expression day 4 (Hif2α mRNA in kidney tumor) (RNAi trigger 115 μg, polymer 100A 375 μg): 0.26 |
| AD02733 (antisense UUUCAUGAAAUCGUUACGUUG; sense ACGUAACGAUUUCAUGAAAT; Hif2alpha RNAi agent antisense strand; modified_base 2,4,6,8,10 /mod_base = “2′-deoxy-2′-fluoro corresponding nucleoside”; modified_base 1,3,5,7,9,11,12,13,14,15,16,17,18,19,20,21 /mod_base = “2′-O-methyl corresponding nucleoside”; modified_base 2,3,20,21 /mod_base = “5′-phosphorothioate corresponding nucleotide”; Hif2alpha RNAi agent sense strand; modified_base 7,9 /mod_base = “2′-deoxy-2′-fluoro corresponding nucleoside”; modified_base 1,2,3,4,5,6,8,10,11,12,13,14,15,16,17,18,19 /mod_base = “2′-O-methyl corresponding nucleoside”; modified_base 20 /mod_base = “3′-3′-linked nucleotide”; modi) |  |  | Relative Expression day 4 (Hif2α mRNA in kidney tumor) [3]: 0.283 |
| AD02734 (antisense UUUCAUGAAAUCGUUACGUUG; sense ACGUAACGAUUUCAUGAAAT; Hif2alpha RNAi agent antisense strand; modified_base 2,4,6,8 /mod_base = “2′-deoxy-2′-fluoro corresponding nucleoside”; modified_base 1,3,5,7,9,10,11,12,13,14,15,16,17,18,19,20,21 /mod_base = “2′-O-methyl corresponding nucleoside”; modified_base 2,3,20,21 /mod_base = “5′-phosphorothioate corresponding nucleotide”; Hif2alpha RNAi agent sense strand; modified_base 7,9 /mod_base = “2′-deoxy-2′-fluoro corresponding nucleoside”; modified_base 1,2,3,4,5,6,8,10,11,12,13,14,15,16,17,18,19 /mod_base = “2′-O-methyl corresponding nucleoside”; modified_base 20 /mod_base = “3′-3′-linked nucleotide”; modi) |  |  | Relative Expression day 4 (Hif2α mRNA in kidney tumor) [3]: 0.262 |
| AD02873 (antisense UUUCAUGAAAUCGUUACGUUG; sense UAUACGUAACGAUUUCAUGAAAT; Hif2alpha RNAi agent antisense strand; modified_base 2,4,6,8,10,14,16,18 /mod_base = “2′-deoxy-2′-fluoro corresponding nucleoside”; modified_base 1,3,5,7,9,11,12,13,15,17,19,20,21 /mod_base = “2′-O-methyl corresponding nucleoside”; modified_base 2,3,20,21 /mod_base = “5′-phosphorothioate corresponding nucleotide”; Hif2alpha RNAi agent sense strand; modified_base 2 modified base = “2′-hydroxy corresponding nucleoside”; modified_base 6,8,10,11,12,16,18,20 /mod_base = “2′-deoxy-2′-fluoro corresponding nucleoside”; modified_base 1,3,4,5,7,9,13,14,15,17,19,21,22 /mod_base = “2′-O-methyl correspon) |  | 0.079 |  |
